Reference: patent publication US8759295B2, “Peptide-peptidase inhibitor conjugates and methods of using same” (Amylin Pharmaceuticals, LLC, priority 2006, dated 2014)
Starred links: 1 amine or outer side, 2 acyl side, 3 side chain; linkers in the order of their positions; H or OH if unused. Non-standard residues stand in square brackets, D forms with d. Residues, ends and D or L forms follow the SMILES beside them. *: point of attachment. Pyrrolidine(2S-CN) = N#C[C@@H]1CCCN1*; εLys = N[C@@H](CCCCN[*:1])C(=O)[*:2]; AEEA = NCCOCCOCC(=O)O

Key:
plasma carboxypeptidase = assay: Carboxypeptidase activity assay in human plasma, PYY(3-35) formation; assay type: biochemical; conditions: for inhibition of formation of PYY(3-35): 0.5 mM, human plasma
Experimental: Carboxypeptidase activity assays were performed in the presence of various agents to test for carboxypeptidase inhibitor activity of the agents.
The remainder of the sample was placed in an incubator at 37° C., mixing at 600 RPM for sixty minutes. At 10 minute intervals, a 100 μL sample of the mixture was removed and transferred to a separate microcentrifuge tubes. Following the transfer of the 100 μL sample at the zero time point and each 10 minute interval, each collected sample was extracted by slow addition of 100 μl cold 0.2% formic acid:acetonitrile, while mixing. After addition of the acetonitrile solution, the sample was vortex mixed at high speed for 15 seconds. The extracted samples were stored at −20° C. for at least 20 minutes and then centrifuged at 11,000×g for 10 minutes at 5° C. The supernatant of each sample was transferred to a new microcentrifuge tube, centrifuged again, and finally transferred for LC/MS analysis. The MS analysis was a Q1 single ion monitoring method that detects the most intense ion of the parent molecule and the peptide fragment of interest.

[1] = test system: Dahl salt-sensitive (DSS) male rats; assay: Congestive heart failure (CHF) in vivo assay; conditions: week 5, high-salt diet, 10 μg/kg/day sc infusion
Experimental: In this assay, Dahl salt-sensitive (DSS) male rats were weaned at 21 days of age, maintained on a low-salt (LS) diet (0.2% NaCl) for 2 weeks. Rats were anesthetized with ketamine/xylazine (50 mg/kg/10 mg/kg, IP) and telemetry transmitters (Data Sciences, Inc.) were inserted to the aortic artery when rats were at 5 weeks of age. After surgery, the rats were allowed 10 days to recuperate before their BP (systolic and diastolic pressures) was recorded.
HS control animals (n=10 rats) were administered vehicle (50% DMSO) and fed HS in the same manner. LS control animals (n=5 rats) were maintained on the LS diet.

[2] = biological target: T1, human GIP receptor (HEK-GIPR membranes) (Homo sapiens, UniProt P48546); assay: GIP receptor binding displacement assay (RBA); conditions: read-out: GIP RBA % inhibition at 10 nM; 10 nM conjugate, 30 pM 125I-GIP
T1 construct: expressed in transfected cells
T1 sequence (P48546 22-466): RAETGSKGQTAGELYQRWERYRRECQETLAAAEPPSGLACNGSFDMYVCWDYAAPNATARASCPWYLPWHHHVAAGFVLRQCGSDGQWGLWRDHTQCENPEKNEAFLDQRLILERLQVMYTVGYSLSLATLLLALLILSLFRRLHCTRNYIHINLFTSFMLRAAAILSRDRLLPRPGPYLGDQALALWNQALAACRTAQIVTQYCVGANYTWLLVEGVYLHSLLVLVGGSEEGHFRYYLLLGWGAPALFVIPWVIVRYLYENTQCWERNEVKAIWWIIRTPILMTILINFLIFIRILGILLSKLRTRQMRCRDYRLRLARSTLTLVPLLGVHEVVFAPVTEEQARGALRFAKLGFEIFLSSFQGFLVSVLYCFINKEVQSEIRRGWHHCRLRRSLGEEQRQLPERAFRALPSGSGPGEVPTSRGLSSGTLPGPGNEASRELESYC
Experimental: Membrane fractions were prepared from confluent cell cultures of HEK-GIPR, snap frozen, and stored at −80° C. until use. […] Reactions were allowed to proceed to equilibrium for 90 minutes at room temperature with constant shaking. The reaction mixtures were then filtered through 96-well glass fiber filter plates separating bound and unbound fractions of radioligand.

Recombinant DPP-IV = Recombinant DPP-IV (Homo sapiens, UniProt P27487); assay: DPP-IV inhibition assay with chromogenic substrate; assay type: biochemical; design: purchased Chemicon International, Inc., Temecula, Calif; conditions: mean SEM of at least three determinations
Chain of Recombinant DPP-IV (P27487 whole entry, species assumed): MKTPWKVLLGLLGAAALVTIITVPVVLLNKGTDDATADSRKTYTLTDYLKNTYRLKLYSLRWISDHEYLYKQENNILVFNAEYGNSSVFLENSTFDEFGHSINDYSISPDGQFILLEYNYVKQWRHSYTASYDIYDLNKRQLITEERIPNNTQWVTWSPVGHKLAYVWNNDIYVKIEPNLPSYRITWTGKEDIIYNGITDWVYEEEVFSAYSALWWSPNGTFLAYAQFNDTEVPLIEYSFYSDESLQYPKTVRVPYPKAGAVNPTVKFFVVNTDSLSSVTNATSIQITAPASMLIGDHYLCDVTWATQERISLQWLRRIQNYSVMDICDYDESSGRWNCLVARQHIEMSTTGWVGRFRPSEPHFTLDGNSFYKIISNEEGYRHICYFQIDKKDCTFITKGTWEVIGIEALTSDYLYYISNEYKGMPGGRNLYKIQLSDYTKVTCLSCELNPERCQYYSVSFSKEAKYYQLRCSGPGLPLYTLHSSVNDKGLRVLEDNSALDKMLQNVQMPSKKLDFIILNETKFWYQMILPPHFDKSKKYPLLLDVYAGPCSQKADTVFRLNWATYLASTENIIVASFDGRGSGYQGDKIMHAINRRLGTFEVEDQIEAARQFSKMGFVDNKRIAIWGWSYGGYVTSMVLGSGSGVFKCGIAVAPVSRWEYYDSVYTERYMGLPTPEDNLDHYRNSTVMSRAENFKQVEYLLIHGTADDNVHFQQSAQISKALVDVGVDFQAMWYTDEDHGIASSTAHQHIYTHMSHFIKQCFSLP
Experimental: The reactions were initiated by adding 1 μl DPP-IV enzyme (0.05 mU) into each well and the absorbance at 410 nm was measured with 20-sec intervals over a 30-min period using a SpectraMax plate reader (Molecular Devices, Corp., Sunnyvale, Calif.). The velocities of each reaction at different inhibitor concentrations were calculated and the reciprocal velocities were plotted against inhibitor concentrations in Dixon graphs. The IC50 values of reaction velocities were calculated through fitting the plots with linear equation.
The IC50 (nM) values in Table 5 are expressed as the mean SEM of at least three independent determinations.

Row | Compound | inhibition of formation of PYY(3-35) (plasma carboxypeptidase) | inhibition at 0.01 µM [2] [%] | IC50 (Recombinant DPP-IV) [nM] | other results
1 | ^36N-methyl-Tyr-amide-PYY(22-36) (ASLRHYLNLVTRQRY; HELM PEPTIDE1{A.S.L.R.H.Y.L.N.L.V.T.R.Q.R.[meY].[am]}$$$$V2.0; N-terminus assumed; SMILES CC(C)C[C@H](NC(=O)[C@H](CO)NC(=O)[C@H](C)N)C(=O)N[C@@H](CCCNC(=N)N)C(=O)N[C@@H](Cc1c[nH]cn1)C(=O)N[C@@H](Cc1ccc(O)cc1)C(=O)N[C@@H](CC(C)C)C(=O)N[C@@H](CC(N)=O)C(=O)N[C@@H](CC(C)C)C(=O)N[C@H](C(=O)N[C@H](C(=O)N[C@@H](CCCNC(=N)N)C(=O)N[C@@H](CCC(N)=O)C(=O)N[C@@H](CCCNC(=N)N)C(=O)N(C)[C@@H](Cc1ccc(O)cc1)C(N)=O)[C@@H](C)O)C(C)C) [N-terminal truncation of ^36N-methyl-Tyr-amide-PYY(3-36)] | measurable but lower activity |  |  | 
2 | CC[C@H](C)[C@H](NC(=O)[C@H](Cc1ccccc1)NC(=O)[C@H](CC(C)C)NC(=O)[C@H](CCCNC(=N)N)NC(=O)[C@@H](NC(=O)[C@H](C)NC(=O)[C@H](CCC(=O)O)NC(=O)[C@H](CCC(=O)O)NC(=O)[C@H](CCC(=O)O)NC(=O)[C@H](CC(C)C)NC(=O)[C@H](CCC(N)=O)NC(=O)[C@H](CCCCN)NC(=O)[C@H](CO)NC(=O)[C@H](CC(C)C)NC(=O)[C@H](CC(=O)O)NC(=O)[C@H](CO)NC(=O)[C@@H](NC(=O)[C@H](Cc1ccccc1)NC(=O)[C@@H](NC(=O)CNC(=O)[C@H](CCC(=O)O)NC(=O)CNC(=O)[C@@H](N)Cc1c[nH]cn1)[C@@H](C)O)[C@@H](C)O)C(C)C)C(=O)N[C@@H](CCC(=O)O)C(=O)N[C@@H](Cc1c[nH]c2ccccc12)C(=O)N[C@@H](CC(C)C)C(=O)N[C@@H](CCCCN)C(=O)N[C@@H](CCC(N)=O)C(=O)NCC(=O)NCC(=O)N1CCC[C@H]1C(=O)N[C@@H](CO)C(=O)N[C@@H](CCCCN)C(=O)N[C@@H](CCC(=O)O)C(=O)N[C@H](C(=O)N[C@H](C(=O)N[C@@H](CO)C(=O)NCCOCCOCCOCC(=O)NCCOCCOCC(=O)NCCCC[C@H](NC(CCc1ccccc1)C(=O)O)C(=O)N1CCC[C@H]1C(=O)O)[C@@H](C)CC)[C@@H](C)CC (stereo partly shown) [Compound 5715] |  |  |  | mean diastolic blood pressure [1]: 112 mmHg; mean heart rate [1]: 381; mean systolic blood pressure [1]: 161 mmHg
3 | ^36N-methyl-Tyr-amide-PYY(34-36) (QRY; HELM PEPTIDE1{Q.R.[meY].[am]}$$$$V2.0; N-terminus assumed; SMILES CN(C(=O)[C@H](CCCNC(=N)N)NC(=O)[C@@H](N)CCC(N)=O)[C@@H](Cc1ccc(O)cc1)C(N)=O) [N-terminal truncation of ^36N-methyl-Tyr-amide-PYY(3-36)] | did not inhibit |  |  | 
4 | CC[C@H](C)[C@H](NC(=O)[C@H](CO)NC(=O)[C@H](Cc1ccc(O)cc1)NC(=O)[C@H](CC(=O)O)NC(=O)[C@H](CO)NC(=O)[C@@H](NC(=O)[C@H](Cc1ccccc1)NC(=O)[C@@H](NC(=O)CNC(=O)[C@H](CCC(=O)O)NC(=O)[C@H](C)NC(=O)[C@@H](N)Cc1ccc(O)cc1)[C@@H](C)O)[C@@H](C)CC)C(=O)N[C@@H](C)C(=O)N[C@@H](CCSC)C(=O)N[C@@H](CC(=O)O)C(=O)N[C@@H](CCCCN)C(=O)N[C@H](C(=O)N[C@@H](Cc1c[nH]cn1)C(=O)N[C@@H](CCC(N)=O)C(=O)N[C@@H](CCC(N)=O)C(=O)N[C@@H](CC(=O)O)C(=O)N[C@@H](Cc1ccccc1)C(=O)N[C@H](C(=O)N[C@@H](CC(N)=O)C(=O)N[C@@H](Cc1c[nH]c2ccccc12)C(=O)N[C@@H](CC(C)C)C(=O)N[C@@H](CC(C)C)C(=O)N[C@@H](C)C(=O)N[C@@H](CCC(N)=O)C(=O)N[C@@H](CCCCNC(=O)COCCOCCNC(=O)CC[C@H](N)C(=O)N1CCC[C@H]1C#N)C(N)=O)C(C)C)[C@@H](C)CC [Lys^30N-ε-(Ado-(γ-L-Glu-2-(S)-cyanopyrrolidyl)) GIP(1-30)] |  | 33 | 49 ± 6 | 
5 | NCCc1ccc(S(=O)(=O)F)cc1 [AEBSF, 4-(2-aminoethyl)-benzenesulfonylfluoride, reference compound] |  |  |  | inhibition of plasma carboxypeptidase activity (plasma carboxypeptidase; protease inhibitor at 1 mM): inhibited
6 | CC[C@H](C)[C@H](NC(=O)[C@H](CO)NC(=O)[C@H](Cc1ccc(O)cc1)NC(=O)[C@H](CC(=O)O)NC(=O)[C@H](CO)NC(=O)[C@@H](NC(=O)[C@H](Cc1ccccc1)NC(=O)[C@@H](NC(=O)CNC(=O)[C@H](CCC(=O)O)NC(=O)[C@H](C)NC(=O)[C@@H](N)Cc1ccc(O)cc1)[C@@H](C)O)[C@@H](C)CC)C(=O)N[C@@H](C)C(=O)N[C@@H](CCSC)C(=O)N[C@@H](CC(=O)O)C(=O)N[C@@H](CCCCN)C(=O)N[C@H](C(=O)N[C@@H](Cc1c[nH]cn1)C(=O)N[C@@H](CCC(N)=O)C(=O)N[C@@H](CCC(N)=O)C(=O)N[C@@H](CC(=O)O)C(=O)N[C@@H](Cc1ccccc1)C(=O)N[C@H](C(=O)N[C@@H](CC(N)=O)C(=O)N[C@@H](Cc1c[nH]c2ccccc12)C(=O)N[C@@H](CC(C)C)C(=O)N[C@@H](CC(C)C)C(=O)N[C@@H](C)C(=O)N[C@@H](CCC(N)=O)C(=O)N[C@@H](CCCCN)C(=O)NCCOCCOCC(=O)NCCCC[C@H](N)C(=O)N1CCC[C@H]1C#N)C(C)C)[C@@H](C)CC [GIP(1-30)-Ado-Lys-N-ε-(2-(S)-cyano pyrrolidyl)] |  | 99 | 98 ± 5 | 
7 | CNC(Cc1ccc(O)cc1)C(N)=O (stereo not shown) [N-methyl-Tyr-NH2] | did not inhibit |  |  | 
8 | CC[C@H](C)[C@H](NC(=O)[C@H](CO)NC(=O)[C@H](Cc1ccc(O)cc1)NC(=O)[C@H](CC(=O)O)NC(=O)[C@H](CO)NC(=O)[C@@H](NC(=O)[C@H](Cc1ccccc1)NC(=O)[C@@H](NC(=O)CNC(=O)[C@H](CCC(=O)O)NC(=O)[C@H](C)NC(=O)[C@@H](N)Cc1ccc(O)cc1)[C@@H](C)O)[C@@H](C)CC)C(=O)N[C@@H](C)C(=O)N[C@@H](CC(C)C)C(=O)N[C@@H](CC(=O)O)C(=O)N[C@@H](CCCCN)C(=O)N[C@H](C(=O)N[C@@H](Cc1c[nH]cn1)C(=O)N[C@@H](CCC(N)=O)C(=O)N[C@@H](CCC(N)=O)C(=O)N[C@@H](CC(=O)O)C(=O)N[C@@H](Cc1ccccc1)C(=O)N[C@H](C(=O)N[C@@H](CC(N)=O)C(=O)N[C@@H](Cc1c[nH]c2ccccc12)C(=O)N[C@@H](CC(C)C)C(=O)N[C@@H](CC(C)C)C(=O)N[C@@H](C)C(=O)N[C@@H](CCC(N)=O)C(=O)N[C@@H](CCCCN)C(=O)NCCOCCOCC(=O)NCCCC[C@H](N)C(=O)N1CCC[C@H]1C#N)C(C)C)[C@@H](C)CC [[Leu^14]GIP(1-30)-Ado-Lys-N-ε-(2-(S)-cyano pyrrolidyl)] (H-YAEGTFISDYSIALDKIHQQDFVNWLLAQK[AEEA][εLys]-{Pyrrolidine(2S-CN)}) |  | 100 | 109 ± 1 | 
